Here are results for seven compounds from patent publication US20250313596A1, “BACILLUS SUBTILIS STRAINS PRODUCING NEW MYCOSUBTILIN ISOFORMS” (Universite de Lille, priority 2022, published 2025).

≈ marks a conversion by molar mass, not a printed value. Like-named read-outs stand apart in the source and are kept apart here. Where a SMILES comes first, the peptide text is derived from it. [ ]: non-standard residue; d: D form.

In one data set the test system is Vero cells. The class given is cell-based. As to the method: The cytotoxicity test is performed using Vero cells and the CyQUANT™ XTT Cell Viability assay kit (supplied by Invitrogen™).
Samples are dissolved in 100% DMSO at a concentration of 20-50 g/L. The final concentration in DMEM medium is 40 μg/L. Cells were prepared in flasks containing DMEM cell culture medium with 10% FBS as follows:
A 175 ml flask containing 20-30 million cells with 25 ml medium and 2 ml trypsin was added. Then the medium was discarded as the cells were attached to the flask wall. Rinse twice with PBS, then trypsin was added to detach cells from the flask wall. The mixture was incubated for 5 min at 37° C. To inactivate trypsin, 6 ml […] was added to the medium (twice the volume of the original trypsin in the medium).
In a 50 ml flask, the medium was centrifuged for 5 min at 300 g. […]. The medium was discarded, and the cells were resuspended. 100 μL of cells were added to 100 μL of dye, then 12 μL was used for counting. The percentage of viability was compared with a control of cells without any treatment.
The test is performed in a 96-well plate. A range of concentrations (mg/l) 0.14; 0.28; 0.56; 1.16; 2.25; 4.5 is used to determine the toxicity limit of each isoform.

For a further data set, the system named is Z. tritici. The class given is cell-based. As to conditions: for ECS0 (μg/ml) Z. tritici: concentration that reduces fungal strain growth by 50%; for EC95 (μg/ml) Z. tritici: concentration that reduces pathogen growth by 95%. As to the method: (§1) Three different fungal strains were tested for their antifungal activity: B. cinerea, Aspergillus sp. and Z. tritici. In addition to the two conventional isoforms, three new isoforms are being tested for their antifungal properties. A range of concentrations (μg a.i./ml or ppm) 0; 0.0037; 0.0146; 0.0586; 0.2344; 0.9375; 3.75 and 15 is used to determine the activity coefficient. Based on this concentration range, the EC50 (concentration that reduces fungal strain growth by 50%) and EC95 (concentration that reduces pathogen growth by 95%) were calculated and presented as disclosed in Table 5.
4.3 Antifungal Activity on Z. Tritici

The test system of data set [1] is B. cinerea. The class given is cell-based. As to conditions: for ECS0 (μg/ml) B. cinerea: concentration that reduces fungal strain growth by 50%; for EC95 (μg/ml) B. cinerea: concentration that reduces pathogen growth by 95%. As to the method: as §1
4.1 Antifungal Activity on B. cinerea

In another data set the test system is Aspergillus sp. The class given is cell-based. As to the method: as §1
4.2 Antifungal Activity on Aspergillus sp.

For another data set, the system named is rats. As to conditions: 28-day treatment and 14 days recovery period; cited from earlier work.
The next data set relates to A. niger. As to conditions: Guez et al., 2022; cited from earlier work.
Data set [2] deals with B. cinerea. As to conditions: Béchet et al., 2013; cited from earlier work.

Take `CCCCCCCCCCCCCC1CC(=O)N[C@@H](CCC(N)=O)C(=O)N[C@H](Cc2ccc(O)cc2)C(=O)N[C@H](CC(N)=O)C(=O)N[C@@H](CCC(N)=O)C(=O)N2CCC[C@H]2C(=O)N[C@H](CO)C(=O)N[C@@H](CC(N)=O)C(=O)N1` (some centres unmarked) [Gln1-C16]: in the data set with Vero cells, the “EC50 (cell viability)” value came to 4.5 µg/mL (≈ 4.15 µM) and the “toxicity compared with the conventional isoform, in words” value was “significantly less toxic than the conventional A-C16 isoform”. Moreover, the EC50 value with Z. tritici amounted to 1.906 ppm. In addition, the EC50 value in the data set with B. cinerea [1] was found to be 1.048 ppm.

Consider `CCCCCCCCCCCCCC[C@@H]1CC(=O)N[C@@H](CCC(N)=O)C(=O)N[C@H](Cc2ccc(O)cc2)C(=O)N[C@H](CC(N)=O)C(=O)N[C@@H](CCC(N)=O)C(=O)N2CCC[C@H]2C(=O)N[C@H](CO)C(=O)N[C@@H](CC(N)=O)C(=O)N1` [Gln1-C17], for which the “EC50 (cell viability)” value with Vero cells is listed as “around 3.4 mg/L”. Moreover, in the data set on Z. tritici (Z. tritici), the “antifungal efficacy in words” value is reported as “effective against this fungal strain, but at a higher concentration”. Further, in the data set with Z. tritici, the “ECS0 (μg/ml) Z. tritici” value was determined as 2.156 µg/mL and the “EC95 (μg/ml) Z. tritici” value came to 17.040 µg/mL (≈ 15.5 µM). In the data set with B. cinerea [1] (B. cinerea), the “antifungal efficacy in words” value is listed as “effective against this fungal strain, but at higher concentrations”. Further, in the data set on B. cinerea [1], the “ECS0 (μg/ml) B. cinerea” value was determined as 0.920 µg/mL and the “EC95 (μg/ml) B. cinerea” value is 1.117 µg/mL (≈ 1.02 µM). In the data set on Aspergillus sp., this compound registered an EC50 value of 1.019 ppm. Moreover, in the data set on Aspergillus sp. (Aspergillus sp.), the EC95 value turned out to be 1.290 ppm and the “antifungal efficacy in words” value was “effective against this fungal strain”.

With `CCCCCCCCCCCCCC1CC(=O)N[C@@H](CC(N)=O)C(=O)N[C@H](Cc2ccc(O)cc2)C(=O)N[C@H](CCC(N)=O)C(=O)N[C@@H](CCC(N)=O)C(=O)N2CCC[C@H]2C(=O)N[C@H](CO)C(=O)N[C@@H](CC(N)=O)C(=O)N1` (some centres unmarked) [Gln3-C16], in the data set on Vero cells, the “EC50 (cell viability)” value was “over 4.5 mg/L” and the “toxicity compared with the conventional isoform, in words” value is “significantly less toxic than the conventional A-C16 isoform”.

As for `CCCCCCCCCCCCCC[C@@H]1CC(=O)N[C@@H](CC(N)=O)C(=O)N[C@H](Cc2ccc(O)cc2)C(=O)N[C@H](CCC(N)=O)C(=O)N[C@@H](CCC(N)=O)C(=O)N2CCC[C@H]2C(=O)N[C@H](CO)C(=O)N[C@@H](CC(N)=O)C(=O)N1` [Gln3-C17] (HELM PEPTIDE1{N.[dY].[dQ].Q.P.[dS].N.[CCCCCCCCCCCCCC[C@H](CC(=O)[*:2])N[*:1]]}$PEPTIDE1,PEPTIDE1,1:R1-8:R2$$$V2.0), the “EC50 (cell viability)” value with Vero cells is given as “over 4.5 mg/L”. In the data set on Z. tritici, the “ECS0 (μg/ml) Z. tritici” value was 4.314 µg/mL and the “EC95 (μg/ml) Z. tritici” value was found to be 16.078 µg/mL (≈ 14.6 µM). In addition, in the data set with B. cinerea [1], the “ECS0 (μg/ml) B. cinerea” value came to 1.646 µg/mL and the “EC95 (μg/ml) B. cinerea” value worked out at 3.437 µg/mL (≈ 3.13 µM). For the same compound, the “ECS0 (μg/ml) Aspergillus sp.” value with Aspergillus sp. (concentration that reduces fungal strain growth by 50%) worked out at 6.335 µg/mL. In the data set on Aspergillus sp. (concentration that reduces pathogen growth by 95%), the “EC95 (μg/ml) Aspergillus sp.” value came to 13.659 µg/mL (≈ 12.4 µM).

For Iturin A, the “toxic effects on organs, in words” value in the data set with rats is “no toxic effects on the lungs, heart and kidneys”.

Regarding “conventional C17 isoform of mycosubtilin, ring Asn-Tyr-Asn-Gln-Pro-Ser-Asn (peaks 5, 6, 7; FIG. 1) (cyclo(N[dY][dN]QP[dS]N); not fully specified (N-terminus)) [A-C17]”, in the data set on Vero cells (Vero cells, XTT, range 0.14-4.5 mg/l, determined from FIG. 7), the “EC50 (cell viability)” value is “around 1.7 mg/L”. In the data set on Z. tritici, the “ECS0 (μg/ml) Z. tritici” value worked out at 0.943 µg/mL and the “EC95 (μg/ml) Z. tritici” value is 18.010 µg/mL. For the same compound, in the data set with B. cinerea [1], the “ECS0 (μg/ml) B. cinerea” value was 0.467 µg/mL and the “EC95 (μg/ml) B. cinerea” value came out at 0.677 µg/mL. In the data set with Aspergillus sp. (Aspergillus sp.), this compound returned an EC50 value of 1.191 ppm and an EC95 value of 1.905 ppm. Moreover, in the data set on Aspergillus sp. (EC50, A-C17 versus Gln1-C17), the “higher concentration of the former required to have the same activity as the latter” value was determined as 14%. In addition, in the data set on Aspergillus sp. (EC95, A-C17 versus Gln1-C17), the “higher concentration of the former required to have the same activity as the latter” value turned out to be 32%.

In general, MIC refers to the lowest concentration that inhibits growth of the organism. For n-C16, the minimum inhibitory concentration (MIC) with A. niger and in the data set with B. cinerea [2] was 16 µM in each case.
